Marks after values point to notes of the source that are not given here.
Experiments:
Type in all cases: in vivo
[1] = tested on: New Zealand white rabbits; experiment: Nutritional ingredients of muscle (moisture, crude protein, ether extract); settings: 28 d
Text: (§1) The single-factor completely randomized test design is adopted. 36 45-day-old healthy New Zealand white rabbits (male) with the average weight of (1.05±0.04) kg are selected and randomly divided into 3 groups, and each group has 12 replicates with 1 rabbit per replicate. A control group is fed with a basal diet, an L-DNJ group is fed with the basal diet+0.14 g/kg DNJ, and an H-DNJ group is fed with the basal diet+0.28 g/kg DNJ. The diet is uniformly mixed to be prepared into cylindrical particles with the diameter of 6 mm and the length of 1 cm. The preliminary trial period is 14 d, and the trial period is 28 d.
The rabbits are deprived of food (but not water) on the night of the end of the experiment, and after weighing in the next morning, 8 rabbits with similar weight are selected from each group and slaughtered. The longissimus dorsi muscles of the rabbits are collected, the pH values of the front, middle and back parts of the longissimus dorsi muscle are measured with a pH meter (Bante221, Shanghai Bante Instrument Co., Ltd.) having the function of automatic temperature compensation and then measured again after standing at room temperature for 24 h, and the pH decreased values of the muscle within 24 h are calculated. The pH value is the average value of the three readings. The meat color (L*, α*, b*) is measured with a TC-PIIG automatic color difference meter (Beijing Aoyike Photoelectric Instrument Co., Ltd.) on the muscle surface. The detection light source is D65 according to CIE laboratory standards, and the measurement area is 8 mm in diameter. The average value is obtained by making three measurements at each detection point.
The contents of moisture, crude protein and ether extract in the muscle are measured according to the method proposed by Zhang Liying (Zhang Liying. Feed analysis and feed quality inspection technology [M]. 4th Ed. Beijing: China Agricultural University Press, 2016).

[2] = tested on: New Zealand white rabbits; experiment: Growth performance (ADFI, ADG, FCR); settings: 28 d trial
Text: as §1
In the morning of the first day of the trial period and the second day after the trial, the experimental rabbits are weighed once on an empty stomach, and the average daily gain (ADG) of each rabbit is calculated. Leftovers are collected and weighed before feeding, and the average daily feed intake (ADFI) of each rabbit is calculated. The ratio of the average daily feed intake to the average daily gain is the feed conversion rate (FCR). The calculation formula is as follows: • ADG=(final weight−initial weight)/test days; • ADFI=total feed intake/test days; • FCR=ADFFADG.

[3] = tested on: New Zealand white rabbits; experiment: Antioxidant indexes of rabbit meat (T-AOC, SOD, GSH-Px, MDA kits); settings: 28 d, muscle homogenate
Text: as §1
About 5 g of muscular tissue is rinsed in 0-4° C. precooled normal saline to remove blood, dried with filter paper, and then weighed. The muscle tissue and 0-4° C. precooled homogenate buffer are thoroughly mixed and homogenized in an ice water bath at a […] to prepare muscle tissue homogenate with the mass concentration of 10%. The homogenate buffer contains 0.01 mol/L sucrose, 0.14 mol/L NaCl, 0.01 mol/L Tris-HCl and 0.0001 mol/L Na2EDTA, with the pH value of 7.4. The total protein content and the malondialdehyde (MDA) content of the tissue suspension is detected with a kit by a colorimetric method. Before the activities of total antioxidant capacity (T-AOC) enzyme, superoxide dismutase (SOD) and glutathione peroxidase (GSH-Px) are measured, the homogenate suspension is centrifuged at 3000 r/min for 15 min, the superneant is taken, and the activities of the enzymes are measured with relevant kits. All the kits are from Nanjing Jiancheng Bioengineering Institute, and the operation method is shown in the instructions of kits.

[4] = H-DNJ: basal diet+0.28 g/kg DNJ
[5] = L-DNJ: basal diet+0.14 g/kg DNJ

OC[C@H]1NC[C@H](O)[C@@H](O)[C@@H]1O [DNJ, 1-deoxynojirimycin]
Nutritional ingredient of muscle: Crude protein (CP) [1, 4]: 22.18
Nutritional ingredient of muscle: Ether extract (EE) [1, 4]: 0.60^c
Nutritional ingredient of muscle: Moisture [1, 4]: 75.20
Nutritional ingredient of muscle: Crude protein (CP) [1, 5]: 22.09
Nutritional ingredient of muscle: Ether extract (EE) [1, 5]: 2.50^b
Nutritional ingredient of muscle: Moisture [1, 5]: 75.93
Average daily feed intake (ADFI) [2, 4]: 140.46
Average daily gain (ADG) [2, 4]: 32.66 g/day
Feed conversion rate (FCR) [2, 4]: 0.24 g/g
Average daily feed intake (ADFI) [2, 5]: 145.33
Average daily gain (ADG) [2, 5]: 36.18 g/day
Feed conversion rate (FCR) [2, 5]: 0.25 g/g
GSH-Px of rabbit meat [3, 4]: 7.88ª U/mg prot
MDA of rabbit meat [3, 4]: 0.45 nmol/mg prot
SOD of rabbit meat [3, 4]: 25.91 U/mg prot
T-AOC of rabbit meat [3, 4]: 0.82ª U/mg prot
GSH-Px of rabbit meat [3, 5]: 6.36^b U/mg prot
MDA of rabbit meat [3, 5]: 0.41 nmol/mg prot
SOD of rabbit meat [3, 5]: 25.01 U/mg prot
T-AOC of rabbit meat [3, 5]: 0.78^ab U/mg prot

— patent US20230329282A1, “Application of 1-Deoxynojirimycin in Feed for Improving Nutritional Value and Sensory Effect of Rabbit Meat Products” (priority 2023, published 2023)
